Test results from US8916565B2, “Pyrrolopyrazine-spirocyclic piperidine amides as modulators of ion channels” (priority 2011, dated 2014).

Target: human NaV subtype, like NaV 1.7 (Homo sapiens, UniProt Q15858)
Experiment: E-VIPR optical membrane potential assay with electrical stimulation
Format: cell-based
Details: active against one or more sodium channels; Table 3 does not name the assay or NaV subtype; read-out: Binned Activity Data (IC50)

Chain of human NaV subtype, like NaV 1.7 (Q15858 whole entry): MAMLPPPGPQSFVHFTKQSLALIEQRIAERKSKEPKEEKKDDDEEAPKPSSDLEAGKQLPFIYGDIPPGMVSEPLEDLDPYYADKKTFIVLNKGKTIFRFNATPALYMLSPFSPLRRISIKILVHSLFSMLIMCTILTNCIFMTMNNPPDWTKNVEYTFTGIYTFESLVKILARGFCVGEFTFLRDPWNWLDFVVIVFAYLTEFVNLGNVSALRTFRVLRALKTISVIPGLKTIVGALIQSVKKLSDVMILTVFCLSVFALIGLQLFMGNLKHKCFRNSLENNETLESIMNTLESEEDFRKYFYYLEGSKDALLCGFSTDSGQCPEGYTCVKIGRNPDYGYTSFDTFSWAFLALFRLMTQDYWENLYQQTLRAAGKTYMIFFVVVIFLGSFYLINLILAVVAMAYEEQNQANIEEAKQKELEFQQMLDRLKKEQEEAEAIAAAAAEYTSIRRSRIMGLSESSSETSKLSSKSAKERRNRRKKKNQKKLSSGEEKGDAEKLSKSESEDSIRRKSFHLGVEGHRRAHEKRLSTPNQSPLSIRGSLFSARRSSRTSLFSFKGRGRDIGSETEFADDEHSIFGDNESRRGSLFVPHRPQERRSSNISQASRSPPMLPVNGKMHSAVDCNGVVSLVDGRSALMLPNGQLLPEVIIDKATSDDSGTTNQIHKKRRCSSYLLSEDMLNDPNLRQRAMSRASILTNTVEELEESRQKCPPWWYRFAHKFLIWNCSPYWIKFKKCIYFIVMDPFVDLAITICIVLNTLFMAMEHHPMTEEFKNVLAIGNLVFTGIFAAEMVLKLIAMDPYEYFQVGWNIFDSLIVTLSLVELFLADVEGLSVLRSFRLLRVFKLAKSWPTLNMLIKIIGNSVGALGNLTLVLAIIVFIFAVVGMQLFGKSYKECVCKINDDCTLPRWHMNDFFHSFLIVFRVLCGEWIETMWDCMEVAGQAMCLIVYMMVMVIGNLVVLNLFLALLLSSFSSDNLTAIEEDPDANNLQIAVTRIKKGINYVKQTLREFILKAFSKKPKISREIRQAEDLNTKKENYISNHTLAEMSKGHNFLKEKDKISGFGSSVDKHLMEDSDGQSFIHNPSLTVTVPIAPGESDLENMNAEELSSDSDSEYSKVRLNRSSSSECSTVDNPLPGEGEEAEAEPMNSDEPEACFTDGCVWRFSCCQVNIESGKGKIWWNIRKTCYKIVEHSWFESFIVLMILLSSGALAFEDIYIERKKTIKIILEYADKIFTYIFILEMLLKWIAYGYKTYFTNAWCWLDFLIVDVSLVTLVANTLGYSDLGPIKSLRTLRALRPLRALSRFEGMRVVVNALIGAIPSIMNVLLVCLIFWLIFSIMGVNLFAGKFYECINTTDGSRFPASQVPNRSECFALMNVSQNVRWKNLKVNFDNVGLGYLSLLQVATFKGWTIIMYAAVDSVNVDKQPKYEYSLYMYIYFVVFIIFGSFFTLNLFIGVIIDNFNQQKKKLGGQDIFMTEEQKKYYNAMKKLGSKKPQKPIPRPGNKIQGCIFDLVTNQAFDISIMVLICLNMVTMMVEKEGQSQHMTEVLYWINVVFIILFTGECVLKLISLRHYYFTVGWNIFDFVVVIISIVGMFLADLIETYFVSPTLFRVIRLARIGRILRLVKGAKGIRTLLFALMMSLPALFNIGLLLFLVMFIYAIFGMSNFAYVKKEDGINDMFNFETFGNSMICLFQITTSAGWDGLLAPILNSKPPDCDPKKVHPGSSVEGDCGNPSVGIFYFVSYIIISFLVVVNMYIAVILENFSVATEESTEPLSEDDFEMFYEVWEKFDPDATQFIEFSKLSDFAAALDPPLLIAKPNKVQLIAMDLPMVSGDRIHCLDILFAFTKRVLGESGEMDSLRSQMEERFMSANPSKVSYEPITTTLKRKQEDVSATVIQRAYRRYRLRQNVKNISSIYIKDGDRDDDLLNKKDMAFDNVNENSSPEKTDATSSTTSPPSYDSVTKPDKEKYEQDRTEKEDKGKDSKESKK

`COc1cc(C(=O)N2CC[C@]3(C[C@H]2C)c2ccc(C(F)(F)F)n2CCN3C)ccc1OC(C)C` [Compound 328] was tested, and the IC50 was > 5000 nM.
Molecule `CC(=O)c1ccc2n1CCN(C)C21CCN(C(=O)c2ccc(OCC3CC3)c(F)c2)CC1` [Compound 329] has an IC50 of 2000 to 5000 nM.
`CN1CCn2c(Cl)ccc2C12CCN(C(=O)c1ccc(OCC(F)(F)F)cc1)CC2` [Compound 330] showed an IC50 of 2000 to 5000 nM.
In the case of `CCc1ccc(C(=O)N2CCC3(CC2)c2ccc(C(=O)C(F)(F)F)n2CCN3C)nc1` [Compound 331], the IC50 is reported as > 5000 nM.
With `Cc1cc(C(=O)N2CCC3(CC2)c2ccc(C(F)(F)F)n2CCN3C2CC2)ccc1OCC(C)(C)O` [Compound 332] the IC50 was ≤ 2000 nM.
With `Cc1cc(C(=O)N2CCC3(CC2)c2ccc(C(F)(F)F)n2CCN3C2CC2)ccc1OC(C)C` [Compound 333] the IC50 was ≤ 2000 nM.
For `CN1CCn2c(Cl)ccc2C12CCN(C(=O)c1ccc(Cc3ccccc3)cc1)CC2` [Compound 334], the IC50 was > 5000 nM.
For `Cc1cc(C(=O)N2CCC3(CC2)c2ccc(C(F)(F)F)n2CCN3C)ccc1OCCO` [Compound 335], the IC50 was ≤ 2000 nM.
With `COCCN1CCn2c(C(F)(F)F)ccc2C12CCN(C(=O)c1ccc(OC(C)C)c(CO)c1)CC2` [Compound 336] the IC50 was ≤ 2000 nM.
In the case of `CC(C)Oc1ccc(C(=O)N2CCC3(CC2)NCC(C)(C)n2c(C(F)(F)F)ccc23)cc1F` [Compound 337], the IC50 is reported as ≤ 2000 nM.
With `COc1ccc(C(=O)N2CCC3(CC2)c2ccc(C(=O)C(C)C)n2CCN3C)cc1C` [Compound 338] the IC50 was ≤ 2000 nM.
With `CC(C)Cc1ccc(C(=O)N2CCC3(CC2)c2ccc(C(=O)C(F)(F)F)n2CCN3C)cc1` [Compound 339] the IC50 was ≤ 2000 nM.
For `Cc1cc(C(=O)N2CCC3(CC2)c2c(Br)cc(C(F)(F)F)n2CCN3C)ccc1OC(C)C` [Compound 340], the IC50 was ≤ 2000 nM.
`COc1ccc(C(=O)N2CCC3(CC2)NCC(C)n2c(C(=O)C(F)(F)F)ccc23)cc1Cl` (centres unmarked) [Compound 341] was tested, and the IC50 was ≤ 2000 nM.
`CC(=O)c1ccc2n1CCN(C)C21CCN(C(=O)c2ccc(OC(C)C)cc2)CC1` [Compound 342] was tested, and the IC50 was > 5000 nM.
In the case of `CCNS(=O)(=O)c1ccc(C(=O)N2CCC3(CC2)c2ccc(C(F)(F)F)n2CCN3C)cc1C` [Compound 343], the IC50 is reported as ≤ 2000 nM.
`CC(=O)c1cc2n(c1)CC(C)(C)NC21CCN(C(=O)c2ccc(C3CCCCC3)cc2)CC1` [Compound 344] showed an IC50 of 2000 to 5000 nM.
With `CCc1ccc(C(=O)N2CCC3(CC2)c2ccc(C(F)(F)F)n2CCN3C)nc1` [Compound 345] the IC50 was > 5000 nM.
With `CN1CCn2c(C(F)(F)F)ccc2C12CCN(C(=O)c1cccnc1N1CCCCC1)CC2` [Compound 346] the IC50 was ≤ 2000 nM.
`Cc1cc(C(=O)N2CCC3(CC2)c2ccc(C(F)(F)F)n2CCN3C)ccc1S(=O)(=O)N(C)C` [Compound 347] was tested, and the IC50 was ≤ 2000 nM.
With `COc1cc(C(=O)N2CCC3(CC2)c2c(Br)cc(C(F)(F)F)n2CCN3C)ccc1OC(C)C` [Compound 348] the IC50 was ≤ 2000 nM.
With `C[C@H]1Cn2c(C(=O)C(F)(F)F)ccc2C2(CCN(C(=O)c3ccc(C(C)(C)O)cc3)CC2)N1C` [Compound 349] the IC50 was ≤ 2000 nM.
In the case of `Cc1cc(C(=O)N2CC[C@]3(c4ccc(C(F)(F)F)n4CCN3C)[C@H](F)C2)ccc1C(C)(C)O` [Compound 350], the IC50 is reported as ≤ 2000 nM.
In the case of `COc1ccc(C(=O)N2CCC3(CC2)c2ccc(C(F)(F)F)n2CCN3C)cc1` [Compound 351], the IC50 is reported as > 5000 nM.
`CN1CCn2c(Cl)ccc2C12CCN(C(=O)c1ccc(S(=O)(=O)NC3CC3)cc1)CC2` [Compound 352] showed an IC50 of 2000 to 5000 nM.
In the case of `COc1cc(C(=O)N2CCC3(CC2)NC(C)(C)Cn2c(C(C)=O)ccc23)ccc1C(C)(C)C` [Compound 353], the IC50 is reported as ≤ 2000 nM.
In the case of `CC(C)(O)c1ccc(C(=O)N2CCC3(CC2)c2ccc(C(F)(F)F)n2CCN3CC(F)F)cc1` [Compound 354], the IC50 is reported as ≤ 2000 nM.
With `Cc1cc(C(=O)N2CCC3(CC2)c2ccc(C(=O)C(F)(F)F)n2C(C)CN3C)ccc1OC(C)C` (centres unmarked) [Compound 355] the IC50 was ≤ 2000 nM.
With `Cc1cc(C(=O)N2CCC3(CC2)NCCn2c(C(F)(F)F)ccc23)ccc1OC(C)C` [Compound 356] the IC50 was ≤ 2000 nM.
For `COc1nc(C(=O)N2CCC3(CC2)c2ccc(C(=O)C(F)(F)F)n2CCN3C)ccc1OC(C)C` [Compound 357], the IC50 was ≤ 2000 nM.
In the case of `CN1CCn2c(C(=O)C(F)(F)F)ccc2C12CCN(C(=O)c1ccc(C(C)(C)O)cc1)CC2` [Compound 358], the IC50 is reported as 2000 to 5000 nM.
With `CC(C)C(=O)c1ccc2n1CCN(C)C21CCN(C(=O)c2ccc(COCCC(F)(F)F)cc2)CC1` [Compound 359] the IC50 was ≤ 2000 nM.
In the case of `COc1cc(C(=O)N2CCC3(CC2)c2ccc(C(=O)C(F)(F)F)n2CCN3C)ccc1OCCOC(F)(F)F` [Compound 360], the IC50 is reported as ≤ 2000 nM.
In the case of `CC(=O)c1ccc2n1C(C)(C)CN(C)C21CCN(C(=O)c2ccc(C3CCCCC3)cc2)CC1` [Compound 361], the IC50 is reported as ≤ 2000 nM.
In the case of `COc1cc(C(=O)N2CCC3(CC2)c2ccc(C(F)(F)F)n2CCN3C=O)ccc1OC(C)C` [Compound 362], the IC50 is reported as > 5000 nM.
In the case of `CC(C)S(=O)(=O)c1ccc(C(=O)N2CCC3(CC2)c2c(F)cc(C(F)(F)F)n2CCN3C)cc1` [Compound 363], the IC50 is reported as ≤ 2000 nM.
With `COc1cc(C(=O)N2CCC3(CC2)NC(C)(C)Cn2cc(C(C)=O)cc23)ccc1C(C)(C)C` [Compound 364] the IC50 was > 5000 nM.
With `CN1CCn2c(C(F)(F)F)ccc2C12CCN(C(=O)c1cc3occc3n1C)CC2` [Compound 365] the IC50 was ≤ 2000 nM.
For `CC(C)(O)c1ccc(C(=O)N2CCC3(CC2)c2ccc(C(F)(F)F)n2CCN3CC(F)(F)F)cc1` [Compound 366], the IC50 was ≤ 2000 nM.
For `CC(C)Oc1ccc(C(=O)N2CCC3(CC2)NCCn2c(C(F)(F)F)ccc23)c(F)c1` [Compound 367], the IC50 was ≤ 2000 nM.
In the case of `CN1CCn2c(C(=O)C3CC3)ccc2C12CCN(C(=O)c1ccc(C(C)(C)O)c(F)c1)CC2` [Compound 368], the IC50 is reported as ≤ 2000 nM.
With `CN1CCn2c(C(=O)C(F)(F)F)ccc2C12CCN(C(=O)c1ccc(OCc3ccccc3)cc1)CC2` [Compound 369] the IC50 was ≤ 2000 nM.
In the case of `CN1CCn2c(C(F)(F)F)ccc2C12CCN(C(=O)c1ccc(C(C)(C)O)c(F)c1)CC2` [Compound 370], the IC50 is reported as ≤ 2000 nM.
In the case of `Cc1cc(C(F)F)n2ncc(C(=O)N3CCC4(CC3)c3ccc(C(F)(F)F)n3CCN4C)c2n1` [Compound 371], the IC50 is reported as ≤ 2000 nM.
`COc1cc(C(=O)N2CCC3(CC2)NCCn2c(C(F)(F)F)ccc23)ccc1OC(C)C` [Compound 372] was tested, and the IC50 was ≤ 2000 nM.
`COc1cc(C(=O)N2CCC3(CC2)c2ccc(C(C)=O)n2CCN3C)ccc1COCCC(F)(F)F` [Compound 373] was tested, and the IC50 was ≤ 2000 nM.
`O=C(c1ccc(Oc2ccccc2)cc1)N1CCC2(CC1)NCCn1c(C(F)(F)F)ccc12` [Compound 374] was tested, and the IC50 was > 5000 nM.
In the case of `COc1cc(C(=O)N2CCC3(CC2)NC(C)(C)Cn2c(C(=O)C(F)(F)F)ccc23)ccc1OC(C)C` [Compound 375], the IC50 is reported as ≤ 2000 nM.
Work on `Cc1cc(C(=O)N2CCC3(CC2)c2ccc(C(=O)C(F)(F)F)n2CCN3C)ccc1F` [Compound 376] yielded an IC50 of 2000 to 5000 nM.
With `COc1ccc(C(=O)N2CCC3(CC2)NC(C)(C)Cn2c(C(=O)C(F)(F)F)ccc23)cc1C(F)(F)F` [Compound 377] the IC50 was ≤ 2000 nM.
`Cc1cc(N2CCCC2)n2ncc(C(=O)N3CCC4(CC3)c3ccc(C(F)(F)F)n3CCN4C)c2n1` [Compound 378] was tested, and the IC50 was ≤ 2000 nM.
For `COc1nc(C(=O)N2CCC3(CC2)c2c(Cl)cc(C(F)(F)F)n2CCN3C)ccc1OC(C)C` [Compound 379], the IC50 was ≤ 2000 nM.
For `CNS(=O)(=O)c1ccc(C(=O)N2CCC3(CC2)c2ccc(C(F)(F)C(F)(F)F)n2CCN3C)cc1` [Compound 381], the IC50 was ≤ 2000 nM.
`CCc1ccc(C(=O)N2CCC3(CC2)c2ccc(C(C)=O)n2CCN3C)cc1OC` [Compound 382] gave an IC50 of 2000 to 5000 nM.
In the case of `Cc1cc(C(=O)N2CCC3(CC2)c2ccc(C(=O)C(F)(F)F)n2CCN3C)ccc1-c1cnn(C)c1` [Compound 383], the IC50 is reported as 2000 to 5000 nM.
`Cc1cc(C(=O)N2CCC3(CC2)c2c(F)cc(C(F)(F)F)n2CCN3C)ccc1C1(O)CCC1` [Compound 384] was tested, and the IC50 was ≤ 2000 nM.
For `CC[C@H](C)Oc1ccc(C(=O)N2CCC3(CC2)c2ccc(C(F)(F)C(F)(F)F)n2CCN3C)cc1OC` [Compound 385], the IC50 was ≤ 2000 nM.
With `CCCCOc1ccc(C(=O)N2CCC3(CC2)c2ccc(Cl)n2CCN3C)cc1` [Compound 386] the IC50 was ≤ 2000 nM.
In the case of `CN1CCn2c(Cl)ccc2C12CCN(C(=O)c1ccc(C(C)(C)O)c(F)c1)CC2` [Compound 387], the IC50 is reported as ≤ 2000 nM.
For `CC(=O)c1ccc2n1CCN(C)C21CCN(C(=O)c2ccc(OCC3CC3)cc2)CC1` [Compound 388], the IC50 was > 5000 nM.
With `CN1CCn2c(C(=O)C(F)(F)F)ccc2C12CCN(C(=O)c1ccc(C3CC3)cc1)CC2` [Compound 389] the IC50 was ≤ 2000 nM.
With `CC(C)Oc1ccc(C(=O)N2CCC3(CC2)c2c(F)cc(C(F)(F)F)n2CCN3C)cc1CO` [Compound 390] the IC50 was ≤ 2000 nM.
`CC(C)Oc1ccc(C(=O)N2CCC3(CC2)c2cc(C(=O)C(F)(F)F)cn2C(C)(C)CN3C)cc1F` [Compound 391] was tested, and the IC50 was > 5000 nM.
With `CN1CCn2c(C(F)(F)F)ccc2C12CCN(C(=O)c1cccnc1N1CCC(F)(F)C1)CC2` [Compound 392] the IC50 was 2000 to 5000 nM.
In the case of `CN1CCn2c(C(F)(F)F)ccc2C12CCN(C(=O)c1ccccc1-c1ccccc1)CC2` [Compound 393], the IC50 is reported as > 5000 nM.
With `Cc1cc(C(=O)N2CCC3(CC2)c2ccc(C#N)n2CCN3C)ccc1OC(C)C` [Compound 394] the IC50 was 2000 to 5000 nM.
`CC(C)C(O)c1ccc(C(=O)N2CCC3(CC2)c2c(F)cc(C(F)(F)F)n2CCN3C)cc1` (centres unmarked) [Compound 395] was tested, and the IC50 was ≤ 2000 nM.
For `CC1(C)Cn2c(C(=O)C(F)(F)F)ccc2C2(CCN(C(=O)c3ccc(S(=O)(=O)C(F)(F)F)cc3)CC2)N1` [Compound 396], the IC50 was ≤ 2000 nM.
`CCCOc1ccc(C(=O)N2CCC3(CC2)c2c(F)cc(C(F)(F)F)n2CCN3C)cc1OC` [Compound 397] was tested, and the IC50 was ≤ 2000 nM.
`CC(=O)c1ccc2n1CCN(C)C21CCN(C(=O)c2ccc(OC(C)C)c(Cl)c2)CC1` [Compound 398] was tested, and the IC50 was ≤ 2000 nM.
For `Cc1cc(S(=O)(=O)C(C)C)ccc1C(=O)N1CCC2(CC1)c1ccc(C(=O)C(C)(C)C)n1CCN2C` [Compound 399], the IC50 was 2000 to 5000 nM.
For `CN1CCn2c(Cl)ccc2C12CCN(C(=O)c1ccc(C3CC3)cc1)CC2` [Compound 400], the IC50 was > 5000 nM.
`CN1CCn2c(C(F)(F)F)cc(Cl)c2C12CCN(C(=O)c1ccc(CC(C)(C)O)c(F)c1)CC2` [Compound 401] was tested, and the IC50 was ≤ 2000 nM.
`CN1CCn2c(C(=O)C(F)(F)F)ccc2C12CCN(C(=O)c1ccc(Oc3ccccc3)cc1)CC2` [Compound 402] gave an IC50 of 2000 to 5000 nM.
